Experimental data published in patent US6949528B1, “Compositions containing lysophosphatidic acids which inhibit apoptosis and uses thereof” (priority 1998, dated 2005).

How the values were obtained:
[1] = tested on: C3H/10T1/2 cells; test: Anti-apoptotic activity assay: serum deprivation of C3H/10T1/2 cells; format: cell-based
Excerpt: In order to determine the […] of the claimed invention, the following method of analysis was used. The cell assay is described in detail in U.S. Pat. Nos. 5,637,486, 5,620,888, and 5,681,703, and Tomei et al. (1993) Proc Natl. Aci. 90:853-857. Briefly, mouse fibroblast C3H/10T1/2 cells (clone 8) were obtained from ATCC (Rockville, Md.) and were maintained in exponential growth phase in which the cell cycle is randomly distributed and no cells are arrested in G0, and in quiescence. Exponential growth phase was assured by seeding at 2000 cells per 1 ml (5 ml for 60 mm culture plate) five days prior to the beginning of the experiment. Assays were performed on cells only up to passage 15. At T=0, cultures were transferred to serum-free medium, as an appropriate stimulus, and seed extracts were added. Controls included 10^−7 and 5×10^−8 M 12-O-tetradecanoyl phorbol-13-acetate (TPA) to ensure the responsiveness of the cell culture. The samples were added to serum free medium and sterile filtered prior to addition to the cultures. Assays were performed in triplicate or quadruplicate. Analyses of the cell responses were made between 18 and 28 hours of serum deprivation. Two assays were performed on each cell culture plate consisting of differential cell counts.
1. All non-adherent or loosely adherent cells were removed from the culture dish and counted by appropriate techniques, typically counting by electronic particle counting instrument. These are the apoptotic cells, the serum deprived released cells (SDR), released by the action of cultivation in serum-free medium. Approximately 95% of these released cells are apoptotic as shown by both ultrastructure analysis and DNA fragmentation analysis.
2. The remaining adherent cells (ADH) were exposed to a buffered, typically pH 7.3, balanced salt solution such as a Hanks Balanced Salt Solution without calcium and magnesium salts containing 0.05% trypsin and 0.53 mM ethylene diaminetetraacetic acid (EDTA). Each culture was incubated at either room temperature or 37(C on a rocking platform to ensure uniform distribution of the trypsin reagent over the culture surface. After a standardized period of time, typically 10 minutes, the released cells were removed from each culture dish and measured by the same means as described above, typically electronic particle counting. This ADH cell count is comprised of both trypsin resistant and trypsin sensitive cells as described in U.S. Pat. Nos. 5,637,486, 5,620,888, and 5,681,703.
Anti-apoptotic activity is expressed in the following examples as the calculated concentration of material ((g/ml of media) required to save 50% of the cells released on serum free treatment.
The ability of 18:1-LPA an other LPAs to protect serum-starved cells from apoptotic death was measured using the C3H/10T1/2 cell assay, performed as described in Example 2. The effect of various compounds on the ability of lysophosphatidic acid to protect serum-starved cells from apoptotic death was also measured. Log phase cells were seeded in 60 mm Petri dishes at 175-350 cells per cm2 and maintained in Basal Medium Eagle (BME) supplemented with 10% Heat Inactivated Fetal Bovine Serum (HIFBS). On day 3 the cells were given fresh media. Treatment began on day 5 when the media containing serum was removed and replaced with the LPA mixture to be tested. After 24 hours of treatment, day 6, serum deprived released (SDR) cells (the […] cell population) and adherent (ADH) cells were separated and counted using an electronic cell counter (Coulter Corporation, Hialea, Fla.). […]

[2] = tested on: rat neonatal cardiomyocytes; test: Cardiomyocyte death induced by serum/glucose deprivation; format: cell-based; settings: serum/glucose deprivation
Procedure: Cardiomyocytes were prepared from hearts of day-old Sprague Dawley rats by trypsinization and mechanical disaggregation (Simpson, (1985)) Circ. Res. 56:884-894. The cells were resuspended in MEM, 1×MEM vitamins (Gibco), 5% fetal bovine serum and 50 U/ml penicillin-G and pre-plated for 30 minutes to reduce contamination of non-myocytes. The non-adherent cardiac myocytes were separated and seeded in 2 ml in 35 mm dishes at a density of 3.5×10^5 viable cells per ml. The cells were allowed to adhere for 16-24 hours in a 37° C./5% CO2 humidified incubator.
For serum deprivation, the medium was replaced with fresh serum-free RPMI, whereas serum/glucose deprivation was performed using glucose-free RPMI. The induction of cell death by adriamycin or C2-ceramide was accomplished by the addition of the agent prepared in serum-free RPMI. As a model of ischemia, cultures in serum and glucose free RPMI were placed in an airtight chamber and the latter was continuously perfused with oxygen-free gas overlay of 95% N2/5% CO2 for 8 hours at 37° C. To model reperfusion of the ischemic cells, 10% fetal bovine serum, 2 g/L of glucose were added and the cultures were returned to a normal oxygen gas overlay (37° C./5% CO2) in a humidified incubator for 16 hours.
T investigate effects of LPA, LPA plus other phospholipids, PEG or their mixtures on cell death, various combinations of these components were added to cells in serum free medium at the beginning of cytotoxic treatment.
Because cardiomyocytes are terminally differentiated non-dividing cells, viability was determined by measurement of the decrease in the relative number of adherent cells. […] Adherent cardiomyocytes were collected from culture dishes using 0.25% Trypsin/0.05% EDTA and counted on Coulter Counter ZM and Coulter Channelyzer 256.

[3] = tested on: C3H/10T1/2 cells; test: Effect of proteins on anti-apoptotic activity of soy LPA, C3H/10T1/2 cell assay; format: cell-based; settings: for Protein +10 (g/mL Soy LPA, percent cells saved from apoptosis): 1:10 soy-LPA to protein (weight:weight); for Protein +10 (g/mL Soy LPA, percent cells saved from apoptosis) / Protein Alone (0.01%), percent cells saved from apoptosis: 24 hours serum deprivation; for Increase with LPA: difference protein + soy LPA minus protein alone; for Protein Alone (0.01%), percent cells saved from apoptosis: protein without LPA; for enhancement of the anti-apoptotic activity of soy-LPA (more than additive protection): soy-LPA added together with protein
Procedure: Soy derived LPA (soy-LPA) (Avanti® Polar Lipids, Inc., Alabaster, Ala.) was stored in an organic solution and was dried immediately prior to assay using a Speed Vac (Savant Instruments, Hicksville, N.Y.). Tested proteins were resuspended at 10_mg/mL in a bicarbonate buffered saline/EDTA solution (50_mM NH4HCO3, […] NaCl, 250_(M EDTA) prior to being added to dried soy-LPA at a 1:10_soy-LPA to protein (weight:weight) ratio. The mixture was then sonicated for 5 minutes using a high power 80 Watt sonication bath (Laboratory Supplies Co., Hicksville, N.Y.). Following sonication, concentrated LPA/protein mixtures were left standing for 15 minutes at room temperature prior to dilution in cell culture assay media.
The effect of various proteins on the ability of LPA to protect serum-starved cells from apoptotic death was measured using the C3H/10T1/2 cell assay, performed as described in Example 2, above. Log phase cells were seeded in 60 mm Petri dishes at 175-350 cells per cm^2 and maintained in Basal Medium Eagle (BME) supplemented with 10% fetal calf serum (Hyclone, Logan, Utah). At time zero, serum containing media was replaced with sterile filtered BME containing the LPA/protein mixture to be tested. After 24 hours of treatment, serum deprived release (SDR) cells (the apoptotic cell population) and adherent (ADH) cells were separated and counted using an electronic cell counter (Coulter Corporation, Hialea, Fla.). SDR cells were counted with the lower threshold setting at 6.3_(m and were defined as the apoptotic cells dying in response to cultivation in serum-free-media. Approximately 95% of the SDR cells are confirmed to be apoptotic as previously shown by size, ultrastructure and DNA fragmentation analysis. Adherent cells were removed by treatment with a Hanks' balanced salt solution containing 0.05% trypsin and 0.53_mM EDTA and were counted with the lower threshold setting at 11.01_(m. All samples were tested in triplicate and serum-deprived controls (BME only) were assayed at both the beginning and end of each experiment.

[4] = Size shift assay (Superdex S75 column); format: binding; settings: FIGS. 10A-10D
Procedure: Size shift assay. Size analysis of LPA both with and without protein was performed using a Superdex® S75 column (Pharmacia Biotech, Uppsala, Sweden). Soy LPA was combined in a chloroform solution with 0.5 Ci^3H-labeled 18:1-LPA (DuPont NEN Products, Boston, Mass.), dried under vacuum and resuspended by sonication in a buffered solution (50 mM ammonium bicarbonate, 154 mM sodium chloride, pH 8.0) in the presence or absence of test protein. The ammonium bicarbonate/sodium chloride solution was used as the mobile phase at a flow rate of 1 ml/min. One-minute fractions were collected for 30 minutes following sample injection. Fractions were counted in scintillant solution using a liquid scintillation counter (Beckman Instrument, Irvine, Calif.). Calibration was performed using a standard solution containing purified proteins (BioRad, Hercules, Calif.).

[5] = Electrophoresis radiobinding assay (native polyacrylamide gel); format: binding; settings: FIG. 9 and other experiments
Procedure: Electrophoresis radiobinding assay. Proteins were analyzed on native polyacrylamide gels following incubation with ^3H-labeled 18:1-LPA. ^3H-labeled lysophosphatidic acid (1-oleyl) (DuPont NEN Products, Boston, Mass.) was added to tested proteins at 1 nM labeled 18:1-LPA/45_(g protein. Mixtures were incubated at a bicarbonate buffered saline/EDTA solution at 37° C. for 60 minutes. Incubated samples were mixed with native gel sample buffer (312_mM Tris pH 6.8, 50% glycerol, 0.05% bromophenol blue) and loaded entirely onto an 8% discontinuous native polyacrylamide gel. Following electrophoresis, proteins were fixed into the gels using an aqueous solution consisting of glacial acetic acid, 10% (vol/vol) and methan 130% (vol./vol.) solution. Fixed gels were then incubated for 60 minutes in autoradiography enhancer (EN^3HANCE, DuPont NEN Products, Boston, Mass.), and dried onto 3M chromatography paper (Whatman, Clifton, N.J.) and exposed to autoradiography film (X-Omat, Kodak, Rochester, N.Y.) for 72 hours at −80° C.

[6] = serum-deprived C3H/10T1/2 cells, 24 hours of treatment

| Molecule | Concentration for Max Effect [1, 6] [µM] | Concentration ranges for cardiomyocyte protection [2] | Protein +10 (g/mL Soy LPA, percent cells saved from apoptosis) [3] | Increase with LPA [3] | Protein Alone (0.01%), percent cells saved from apoptosis [3] [%] | enhancement of the anti-apoptotic activity of soy-LPA (more than additive protection) [3] | binding to 18:1-LPA, detectable band [5] | also measured |
| --- | --- | --- | --- | --- | --- | --- | --- | --- |
| CCCCCCCC/C=C\CCCCCCCC(=O)OCC(COP(O)(O)=S)OC (racemic) [Compound 48, 3-O-Oleoyl-2-O-methyl-rac-glycero-1-thiophosphate] | 1 | .03 to 10 µM |  |  |  |  |  | activity compared with lysophosphatidic acid ([1]; Table 3): activity significantly higher than lysophosphaticid acid; Maximum effect relative to 18:1 LPA [1, 6]: 130%; Maximum effect relative to 18:1 LPA in cardiomyocytes [2]: 100% |
| Cytochrome C: cytochrome C from bovine heart |  |  | 54.6% | +38.4% | 16.2 |  |  | elution profile / binding of LPA to protein [4]: LPA does not bind to this protein |
| Acyl Carrier Protein: acyl carrier protein from E. coli |  |  | 36.2% | +28.1% | 8.1 | to a lesser degree | did not yield detectable bands |  |
| CCCCCCCC/C=C\CCCCCCCCOCC(O)COP(=O)(O)O (racemic) [Compound 12, 3-O-Oleyl-rac-glycero-1-phosphate] | 10 | 1 to 10 µM |  |  |  |  |  | Emax ([1]; Mus musculus, serum-deprived C3H/10T1/2 cells, 24 hours of treatment, read-out: Maximum effect relative to 18:1 LPA): 100%; Emax ([2]; Rattus norvegicus, Cardiomyocyte, read-out: Maximum effect relative to 18:1 LPA in cardiomyocytes): 100% |
| α-fetoprotein: α-fetoprotein from fetal bovine serum (protein, UniProt Q3SZ57 19-610, looked up) Alpha-fetoprotein: RTMHKNAYGIDSILDSSPCSSGTNLVGLATIFFAQSVQGATYEEVSQMVKDVLTIIEKPTGSKQPAGCLENQVSAFLEEICREKEIPEKYGLSDCCSRTGEERHDCFLAHKKAAPASIPPFPVLEPVTSCKSYKENRELFINRYIYEIARRHPVLYAPTILSVANQYNKIIPHCCKAENATECFETKVTSITKELRESSLLNQHICAVMGKFGPRTFRAITVTKVSQKFPKANFTEIQKLVMDVAHIHEECCKGNVLECLQDGERVMSYICSQQDILSRQIAECCKLPTTLELGHCIIHAENDDKPEGLSPNVNRFLGDRDFNQLSSRDKDLSMARFTYEYSRRHTKLAVPIILRVAKGYQELLEKCSQSENPSECQDKGEEELEKYIQESQALAKRSCGLFQKLGEYYLQNAFLVAYTKKAPQLTSPELMALTRKMANAGAICCHLSEDKQLACGEGVADLIIGHLCIRHEENPINPGVDQCCTSSYSNRRPCFSSLVVDETYVPPPFSDDKFIFHKDLCQVQGVPLQTMKQQFLINLVKQKPQITEEQLETVVADFSGLLEKCCQSQEQEVCFTEEGPALISKTRAALGV |  |  |  |  |  |  | bind to 18:1-LPA |  |
| Ovalbumin: ovalbumin from chicken egg (protein, UniProt P01012 2-386, looked up) Ovalbumin: GSIGAASMEFCFDVFKELKVHHANENIFYCPIAIMSALAMVYLGAKDSTRTQINKVVRFDKLPGFGDSIEAQCGTSVNVHSSLRDILNQITKPNDVYSFSLASRLYAEERYPILPEYLQCVKELYRGGLEPINFQTAADQARELINSWVESQTNGIIRNVLQPSSVDSQTAMVLVNAIVFKGLWEKAFKDEDTQAMPFRVTEQESKPVQMMYQIGLFRVASMASEKMKILELPFASGTMSMLVLLPDEVSGLEQLESIINFEKLTEWTSSNVMEERKIKVYLPRMKMEEKYNLTSVLMAMGITDVFSSSANLSGISSAESLKISQAVHAAHAEINEAGREVVGSAEAGVDAASVSEEFRADHPFLFCIKHIATNAVLFFGRCVSP |  |  | 15.I | +7.2% | 7.9 | did not enhance | produce a detectable band |  |
